According to patent US11786534B2 (TAIHO PHARMACEUTICAL CO., LTD., priority 2019, dated 2023):
Read-outs that look alike come from different tables or passages of the source. Values belong to the compound of their own block, whether it stands above or below them.

Key:
human EGFR (WT) = biological target: T1, human EGFR (WT) (Homo sapiens, UniProt P00533); test: Inhibitory activity against EGFR (WT) kinase; format: biochemical; details: Test Example 1, Table 6; ATP 1.5 μM
T1 construct: purchased Carna Biosciences Inc., Japan
Summary of the method: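 Purified recombinant human wild-type EGFR kinase, with ATP at 1.5 μM final. Compound inhibition of kinase activity read out and fitted to give IC50 (nM).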

human EGFR (L858R/C797S) = biological target: T2, human EGFR (L858R/C797S) (Homo sapiens, UniProt P00533, C797S/L858R); test: Inhibitory activity against EGFR (L858R/C797S) kinase; format: biochemical; details: Test Example 1, Table 5; ATP 4 μM, 90 minutes
T2 construct: purchased SignalChem
Summary of the method: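 Purified recombinant human EGFR (C797S/L858R) kinase, final ATP 4 μM, 90-minute kinase reaction, otherwise per the EGFR (d746-750/C797S) protocol. IC50 (nM) determined from inhibition data.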

Ba/F3-EGFR (WT) = Ba/F3-EGFR (WT) (Homo sapiens, UniProt P00533); test: Growth inhibition of cell line expressing wild-type EGFR; format: cell-based, mouse; details: read-out: BaF3_EGFR (WT) IC50 value
Description: (§1) Test for inhibitory activity against the growth of cell lines expressing wild-type and mutated EGFRs (in vitro)
(§2) (1) Mouse cell line Ba/F3-EGFR (d746-750/T790M/C797S) transfected with and stably expressing EGFR (d746-750/T790M/C797S), mouse cell Ba/F3-EGFR (L858R/T790M/C797S) transfected with and stably expressing EGFR (L858R/T790M/C797S), and mouse cell line Ba/F3-EGFR (WT) transfected with and stably expressing wild-type EGFR were each suspended in RPMI-1640 cell culture medium (RPMI-1640, 10% FBS, 100 unit/ml penicillin, 0.1 mg/ml streptomycin). In the case of the mouse cell line Ba/F3-EGFR (WT), RPMI-1640 cell culture medium containing EGF at a final concentration of 50 ng/ml was used to suspend this cell line. It should be noted that the mouse cell line Ba/F3-EGFR (d746-750/T790M/C797S) transfected with and stably expressing EGFR (d746-750/T790M/C797S), the mouse cell line Ba/F3-EGFR (L858R/T790M/C797S) transfected with and stably expressing EGFR (L858R/T790M/C797S) and the mouse cell line Ba/F3-EGFR (WT) transfected with and stably expressing wild-type EGFR were prepared by using nucleotide sequences encoding the proteins of SEQ ID NOs: 1 and 2 in accordance with Test Example 1 in WO2018/079310, These cell suspensions were seeded in wells of 96-well flat -bottomed plates. The compounds of the present invention were dissolved in DMSO, and serial dilutions of these test compounds were prepared with DMSO (1000-fold of the final concentration). Each test compound solution in DMSO or DMSO alone was diluted with RPMI-1640 cell culture medium for each cell line, and this dilution was added to wells of the cell culture plate such that the final concentration of DMSO was 0.1%, followed by culture at 37° C. for 3 days in a 5% carbon dioxide gas-containing incubator. Before and after addition of each test compound solution in DMSO, the number of cells was counted using the CellTiter-Glo® system (Promega) on the basis of the protocol recommended by Promega.
(§3) In each cell line, the rate of cell growth inhibition was calculated according to the equation shown below in wells to which each test compound was added at different concentrations. Moreover, the inhibition rate at each concentration was plotted for each test compound, and the concentration of each test compound required to give 50% cell survival rate, i.e., IC50 (nM) was determined by curve fitting software XLfit (IDBS).
(§4) Cell survival rate (%)=T/C×100
(§5) T: emission intensity in a well cultured for 3 days after addition of a test compound solution
(§6) C: emission intensity in a well cultured for 3 days after addition of DMSO
(§7) In accordance with the same procedures as shown in Test Example 2, the compounds of the present invention were tested for their inhibitory activity against the growth of the cell hoes expressing wild-type and mutated EGFRs.

[1] = biological target: T3, human EGFR (d746-750/C797S) (Homo sapiens, UniProt P00533, C797S/DEL746-750); test: Inhibitory activity against EGFR (d746-750/C797S) kinase; format: biochemical; details: Test Example 1, Table 4; ATP 14 μM, 60 minutes
T3 construct: purchased SignalChem
Summary of the method: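 Recombinant human EGFR d746-750/C797S in 13.5 mM Tris pH 7.5 with 2 mM DTT and 0.009% Tween-20. Reaction ran 60 min with 14 μM ATP, 20 mM MgCl2 and 12.5 mM MnCl2, stopped by 40 mM EDTA. IC50 in nM.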

[2] = biological target: Ba/F3-EGFR (d746-750/T790M/C797S) (Homo sapiens, UniProt P00533, DEL746-750/T790M/C797S, cells depend on it); test: Growth inhibition of cell line expressing EGFR (d746-750/T790M/C797S); format: cell-based, mouse; details: read-out: BaF3_EGFR (d746-750/T790M/C797S) IC50 value
Description: as §1, §2, §3, §4, §5, §6, §7

[3] = Test Example 4, Table 13, same procedures as Test Example 2
[4] = Test Example 2, Table 7, culture 3 days, EGF 50 ng/ml, CellTiter-Glo
[5] = Test Example 2, Table 7, culture 3 days, CellTiter-Glo

T2 sequence (P00533 25-1210 C797S/L858R): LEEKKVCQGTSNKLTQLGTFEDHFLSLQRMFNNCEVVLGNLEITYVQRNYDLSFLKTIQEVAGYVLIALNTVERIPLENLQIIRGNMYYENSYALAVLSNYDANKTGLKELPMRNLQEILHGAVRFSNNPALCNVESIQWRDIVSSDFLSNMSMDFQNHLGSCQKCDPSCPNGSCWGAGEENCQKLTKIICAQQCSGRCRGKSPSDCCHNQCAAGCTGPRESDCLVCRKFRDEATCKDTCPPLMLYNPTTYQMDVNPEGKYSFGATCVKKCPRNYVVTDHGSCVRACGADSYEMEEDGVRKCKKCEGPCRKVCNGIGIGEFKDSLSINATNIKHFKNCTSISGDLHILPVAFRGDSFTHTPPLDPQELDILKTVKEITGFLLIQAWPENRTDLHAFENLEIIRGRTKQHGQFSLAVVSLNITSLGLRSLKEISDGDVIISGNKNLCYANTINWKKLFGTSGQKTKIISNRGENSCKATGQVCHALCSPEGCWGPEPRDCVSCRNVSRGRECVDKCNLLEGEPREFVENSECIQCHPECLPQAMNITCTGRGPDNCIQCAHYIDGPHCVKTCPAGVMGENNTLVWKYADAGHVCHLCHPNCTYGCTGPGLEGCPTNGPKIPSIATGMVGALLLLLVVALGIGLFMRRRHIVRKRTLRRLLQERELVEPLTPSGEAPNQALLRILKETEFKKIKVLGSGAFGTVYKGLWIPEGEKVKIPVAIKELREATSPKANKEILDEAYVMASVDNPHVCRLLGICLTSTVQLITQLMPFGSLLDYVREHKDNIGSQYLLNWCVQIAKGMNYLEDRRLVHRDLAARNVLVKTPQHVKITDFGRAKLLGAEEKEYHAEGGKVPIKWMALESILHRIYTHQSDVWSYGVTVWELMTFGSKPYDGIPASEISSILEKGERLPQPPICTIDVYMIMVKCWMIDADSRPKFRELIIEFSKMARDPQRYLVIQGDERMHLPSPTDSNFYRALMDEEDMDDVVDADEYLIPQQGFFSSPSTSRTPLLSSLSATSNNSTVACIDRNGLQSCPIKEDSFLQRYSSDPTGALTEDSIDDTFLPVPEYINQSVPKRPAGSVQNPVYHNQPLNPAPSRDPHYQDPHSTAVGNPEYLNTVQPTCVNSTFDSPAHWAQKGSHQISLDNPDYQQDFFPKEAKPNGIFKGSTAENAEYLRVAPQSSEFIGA
Ba/F3-EGFR (d746-750/T790M/C797S), sequence (P00533 with tags, fused parts or gaps DEL746-750/T790M/C797S): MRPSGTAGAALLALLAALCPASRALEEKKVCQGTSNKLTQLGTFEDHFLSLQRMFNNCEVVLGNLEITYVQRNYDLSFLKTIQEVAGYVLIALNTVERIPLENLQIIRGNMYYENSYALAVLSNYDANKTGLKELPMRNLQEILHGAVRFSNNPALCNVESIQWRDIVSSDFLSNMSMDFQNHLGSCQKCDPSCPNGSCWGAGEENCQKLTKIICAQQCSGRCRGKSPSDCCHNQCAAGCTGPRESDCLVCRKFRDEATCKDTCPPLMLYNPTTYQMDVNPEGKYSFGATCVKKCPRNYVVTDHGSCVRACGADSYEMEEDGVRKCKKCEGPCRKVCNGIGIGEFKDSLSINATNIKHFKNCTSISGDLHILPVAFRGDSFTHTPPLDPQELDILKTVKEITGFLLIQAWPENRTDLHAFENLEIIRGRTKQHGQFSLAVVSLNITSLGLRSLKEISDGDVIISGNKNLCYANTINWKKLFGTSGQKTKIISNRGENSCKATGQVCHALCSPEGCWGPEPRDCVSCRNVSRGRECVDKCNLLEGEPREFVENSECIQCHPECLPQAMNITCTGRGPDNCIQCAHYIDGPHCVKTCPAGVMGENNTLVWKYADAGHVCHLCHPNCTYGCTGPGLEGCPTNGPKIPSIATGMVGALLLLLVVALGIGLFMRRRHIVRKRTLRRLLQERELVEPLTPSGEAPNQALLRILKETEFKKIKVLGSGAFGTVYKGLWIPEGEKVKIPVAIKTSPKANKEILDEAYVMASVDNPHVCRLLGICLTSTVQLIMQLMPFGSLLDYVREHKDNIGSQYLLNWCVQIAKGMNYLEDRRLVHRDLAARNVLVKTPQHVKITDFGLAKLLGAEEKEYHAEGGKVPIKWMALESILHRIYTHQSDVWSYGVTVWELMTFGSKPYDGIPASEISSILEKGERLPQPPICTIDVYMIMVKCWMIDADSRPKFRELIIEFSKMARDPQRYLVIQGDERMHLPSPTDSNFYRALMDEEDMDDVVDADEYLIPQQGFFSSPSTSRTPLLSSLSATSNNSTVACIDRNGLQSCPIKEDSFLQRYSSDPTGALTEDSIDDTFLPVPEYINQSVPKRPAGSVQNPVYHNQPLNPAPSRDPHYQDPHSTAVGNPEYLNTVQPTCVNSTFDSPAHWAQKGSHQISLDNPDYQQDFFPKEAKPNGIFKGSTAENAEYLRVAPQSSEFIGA
T3 sequence (P00533 with tags, fused parts or gaps DEL746-750/C797S): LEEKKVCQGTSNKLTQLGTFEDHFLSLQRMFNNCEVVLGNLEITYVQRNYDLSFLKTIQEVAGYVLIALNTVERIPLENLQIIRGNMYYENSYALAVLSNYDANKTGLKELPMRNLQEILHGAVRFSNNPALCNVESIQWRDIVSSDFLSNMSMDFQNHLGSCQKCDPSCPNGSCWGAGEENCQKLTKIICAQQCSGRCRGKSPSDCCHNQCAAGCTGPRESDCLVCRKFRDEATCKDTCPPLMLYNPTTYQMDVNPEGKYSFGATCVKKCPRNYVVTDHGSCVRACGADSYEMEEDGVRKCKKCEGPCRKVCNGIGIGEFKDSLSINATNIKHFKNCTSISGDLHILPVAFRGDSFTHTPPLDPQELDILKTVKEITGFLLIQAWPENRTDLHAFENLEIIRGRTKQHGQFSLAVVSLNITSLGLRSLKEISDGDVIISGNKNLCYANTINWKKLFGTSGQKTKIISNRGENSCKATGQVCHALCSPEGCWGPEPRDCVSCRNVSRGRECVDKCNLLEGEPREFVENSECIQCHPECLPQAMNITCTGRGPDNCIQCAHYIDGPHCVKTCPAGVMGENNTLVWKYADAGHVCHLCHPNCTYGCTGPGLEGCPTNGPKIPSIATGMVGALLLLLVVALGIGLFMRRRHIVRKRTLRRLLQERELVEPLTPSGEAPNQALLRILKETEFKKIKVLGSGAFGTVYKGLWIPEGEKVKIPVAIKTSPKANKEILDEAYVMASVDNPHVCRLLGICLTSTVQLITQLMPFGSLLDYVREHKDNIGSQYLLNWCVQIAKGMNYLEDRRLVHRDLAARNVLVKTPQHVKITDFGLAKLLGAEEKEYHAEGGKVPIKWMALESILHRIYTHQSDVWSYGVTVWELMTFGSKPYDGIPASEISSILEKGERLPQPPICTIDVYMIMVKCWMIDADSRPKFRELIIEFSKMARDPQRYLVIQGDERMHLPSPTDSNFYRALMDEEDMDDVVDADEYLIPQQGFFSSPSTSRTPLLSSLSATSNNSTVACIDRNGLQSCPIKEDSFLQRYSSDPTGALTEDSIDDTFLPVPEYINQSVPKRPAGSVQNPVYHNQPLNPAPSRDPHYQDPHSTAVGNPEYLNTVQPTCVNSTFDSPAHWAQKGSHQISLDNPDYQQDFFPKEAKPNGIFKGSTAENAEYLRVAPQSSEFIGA
Ba/F3-EGFR (WT), sequence (P00533 whole entry, stated change not applied): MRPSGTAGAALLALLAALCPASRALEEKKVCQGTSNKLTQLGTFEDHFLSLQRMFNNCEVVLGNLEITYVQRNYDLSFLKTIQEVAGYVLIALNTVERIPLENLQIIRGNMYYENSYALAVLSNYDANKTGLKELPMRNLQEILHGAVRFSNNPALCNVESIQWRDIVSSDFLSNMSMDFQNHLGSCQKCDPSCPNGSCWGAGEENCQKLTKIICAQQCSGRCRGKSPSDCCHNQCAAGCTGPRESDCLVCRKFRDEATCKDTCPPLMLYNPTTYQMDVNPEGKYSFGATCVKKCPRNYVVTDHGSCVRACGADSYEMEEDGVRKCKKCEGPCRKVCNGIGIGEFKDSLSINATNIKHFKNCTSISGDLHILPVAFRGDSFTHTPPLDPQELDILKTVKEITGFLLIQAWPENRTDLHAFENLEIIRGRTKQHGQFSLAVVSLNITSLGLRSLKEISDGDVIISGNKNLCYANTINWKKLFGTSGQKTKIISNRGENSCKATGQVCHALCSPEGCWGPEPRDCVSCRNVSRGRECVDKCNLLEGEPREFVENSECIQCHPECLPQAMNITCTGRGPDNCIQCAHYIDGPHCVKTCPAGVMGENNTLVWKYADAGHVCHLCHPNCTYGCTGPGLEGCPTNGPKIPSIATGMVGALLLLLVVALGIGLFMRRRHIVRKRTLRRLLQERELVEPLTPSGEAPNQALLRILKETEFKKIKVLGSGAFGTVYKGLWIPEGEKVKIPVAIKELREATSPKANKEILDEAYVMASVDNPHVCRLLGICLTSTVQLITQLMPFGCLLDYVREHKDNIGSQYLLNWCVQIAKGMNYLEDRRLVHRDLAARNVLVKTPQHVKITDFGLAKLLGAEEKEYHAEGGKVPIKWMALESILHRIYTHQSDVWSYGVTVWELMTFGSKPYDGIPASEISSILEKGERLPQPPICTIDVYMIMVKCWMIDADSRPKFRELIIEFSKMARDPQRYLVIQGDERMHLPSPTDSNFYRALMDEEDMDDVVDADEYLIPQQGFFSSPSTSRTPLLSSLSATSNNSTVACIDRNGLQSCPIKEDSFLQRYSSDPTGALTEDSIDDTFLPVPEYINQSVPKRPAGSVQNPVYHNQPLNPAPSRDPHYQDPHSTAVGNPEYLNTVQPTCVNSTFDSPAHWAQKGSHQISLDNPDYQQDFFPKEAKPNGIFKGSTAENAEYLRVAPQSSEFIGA

IC50 (human EGFR (WT)): 0.75 nM
IC50 (human EGFR (L858R/C797S)): 0.6 nM
GI50 (Ba/F3-EGFR (WT); [4]): 2490 nM
IC50 [1]: 0.46 nM
GI50 [2, 5]: 24 nM
Structure (SMILES): C#Cc1c(-c2cnc3ccccc3c2)c2c(N)ncnc2n1C12CCC(NC(=O)c3cnccn3)(CC1)C2 [Example 48]

IC50 (human EGFR (WT)): 1.4 nM
IC50 (human EGFR (L858R/C797S)): 0.84 nM
GI50 (Ba/F3-EGFR (WT); [3]): 3190 nM
IC50 [1]: 0.7 nM
GI50 [2, 3]: 31 nM
Structure (SMILES): C#Cc1c(-c2cnc3ccccc3c2)c2c(N)ncnc2n1C12CCC(NC(=O)c3nccn3C)(CC1)C2 [Example 23, N-(4-(4-Amino-6-ethynyl-5-(quinolin-3-yl)-7H-pyrrolo[2,3-d]pyrimidin-7-yl)bicyclo-[2.2.1]heptan-1-yl)-1-methyl-1H-imidazole-2-carboxamide]

IC50 (human EGFR (WT)): 2.1 nM
IC50 (human EGFR (L858R/C797S)): 2.8 nM
GI50 (Ba/F3-EGFR (WT); [3]): 3490 nM
IC50 [1]: 1.8 nM
GI50 [2, 3]: 98 nM
Structure (SMILES): C#Cc1c(-c2cnc3ccccc3c2)c2c(N)ncnc2n1C12CCC(NC(=O)c3ccccc3)(CC1)C2 [Example 1, N-(4-(4-Amino-6-ethynyl-5-(quinolin-3-yl)-7H-pyrrolo[2,3-d]pyrimidin-7-yl)bicyclo-[2.2.1]heptan-1-yl)benzamide]

IC50 (human EGFR (WT)): 0.52 nM
IC50 (human EGFR (L858R/C797S)): 0.46 nM
GI50 (Ba/F3-EGFR (WT); [4]): 2650 nM
GI50 [2, 5]: 20 nM
Structure (SMILES): C#Cc1c(-c2cnc3ccccc3c2)c2c(N)ncnc2n1C12CCC(NC(=O)c3cncnc3)(CC1)C2 [Example 2, N-(4-(4-Amino-6-ethynyl-5-(quinolin-3-yl)-7H-pyrrolo[2,3-d]pyrimidin-7-yl)bicyclo-[2.2.1]heptan-1-yl)pyrimidine-5-carboxamide]

The next lines start with the compound.

Structure (SMILES): C#Cc1c(-c2cnc3ccccc3c2)c2c(N)ncnc2n1C12CCC(NC(=O)c3cncc(F)c3)(CC1)C2 [Example 35, N-(4-(4-Amino-6-ethynyl-5-(quinolin-3-yl)-7H-pyrrolo[2,3-d]pyrimidin-7-yl)-bicyclo-[2.2.1]heptan-1-yl)-5-fluoronicotinamide]
IC50 (human EGFR (WT)): 1.3 nM
IC50 (human EGFR (L858R/C797S)): 0.84 nM
GI50 (Ba/F3-EGFR (WT); [3]): 2960 nM
IC50 [1]: 0.55 nM
GI50 [2, 3]: 44 nM

Structure (SMILES): C#Cc1c(-c2cnc3ccccc3c2)c2c(N)ncnc2n1C12CCC(NC(=O)c3ccnn3C)(CC1)C2 [Example 24, N-(4-(4-Amino-6-ethynyl-5-(quinolin-3-yl)-7H-pyrrolo[2,3-d]pyrimidin-7-yl)bicyclo-[2.2.1]heptan-1-yl)-1-methyl-1H-pyrazole-5-carboxamide]
IC50 (human EGFR (WT)): 0.73 nM
IC50 (human EGFR (L858R/C797S)): 0.59 nM
GI50 (Ba/F3-EGFR (WT); [4]): 3790 nM
IC50 [1]: 0.5 nM
GI50 [2, 5]: 34 nM

Structure (SMILES): C#Cc1c(-c2cnc3ccccc3c2)c2c(N)ncnc2n1C12CCC(N3CCOCC3)(CC1)C2 [Example 9, 6-Ethynyl-7-(4-morpholinobicyclo[2.2.1]heptan-1-yl)-5-(quinolin-3-yl)-7H-pyrrolo[2,3-d]pyrimidine-4-amine]
IC50 (human EGFR (WT)): 2.6 nM
IC50 (human EGFR (L858R/C797S)): 1 nM
GI50 (Ba/F3-EGFR (WT); [3]): > 2000 nM
IC50 [1]: 0.36 nM
GI50 [2, 3]: 59 nM

Structure (SMILES): C#Cc1c(-c2cnc3ccccc3c2)c2c(N)ncnc2n1C12CCC(NC(=O)c3ccco3)(CC1)C2 [Example 41]
IC50 (human EGFR (WT)): 2.1 nM
IC50 (human EGFR (L858R/C797S)): 1.9 nM
GI50 (Ba/F3-EGFR (WT); [3]): 3240 nM
IC50 [1]: 1.4 nM
GI50 [2, 3]: 102 nM

Structure (SMILES): C#Cc1c(-c2cnc3ccccc3c2)c2c(N)ncnc2n1C12CCC(CNC(=O)c3cnc(C)cn3)(CC1)C2 [Example 14, N-((4-(4-Amino-6-ethynyl-5-(quinolin-3-yl)-7H-pyrrolo[2,3-d]pyrimidin-7-yl)bicyclo-[2.2.1]heptan-1-yl)methyl)-5-methylpyrazine-2-carboxamide]
IC50 (human EGFR (WT)): 1.7 nM
IC50 (human EGFR (L858R/C797S)): 1.3 nM
GI50 (Ba/F3-EGFR (WT); [4]): 3500 nM
IC50 [1]: 0.79 nM
GI50 [2, 5]: 204 nM
